Results as given in PubChem BioAssay (NCI).
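How tested: cells in 96-well plates exposed to compound for 48 hours at five concentrations. Definition used: TGI = concentration required for complete inhibition of growth.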

Experiments:
Test in all cases: NCI tumour cell line growth inhibition, 48 h
RPMI-8226 leukemia = test system: RPMI-8226 leukemia
TK-10 renal = test system: TK-10 renal
SN12C renal = test system: SN12C renal
OVCAR-5 ovarian = test system: OVCAR-5 ovarian
SK-MEL-5 melanoma = test system: SK-MEL-5 melanoma
MALME-3M melanoma = test system: MALME-3M melanoma
OVCAR-8 ovarian = test system: OVCAR-8 ovarian
SF-295 CNS = test system: SF-295 CNS
OVCAR-4 ovarian = test system: OVCAR-4 ovarian
HCC-2998 colon = test system: HCC-2998 colon
XF 498 CNS = test system: XF 498 CNS
NCI-H226 lung = test system: NCI-H226 lung
SNB-75 CNS = test system: SNB-75 CNS
CCRF-CEM leukemia = test system: CCRF-CEM leukemia
U251 CNS = test system: U251 CNS
IGROV1 ovarian = test system: IGROV1 ovarian
MOLT-4 leukemia = test system: MOLT-4 leukemia
DMS 273 small cell lung = test system: DMS 273 small cell lung
SR leukemia = test system: SR leukemia
HOP-18 NSCLC = test system: HOP-18 NSCLC
A549 NSCLC = test system: A549 NSCLC
NCI-H23 lung = test system: NCI-H23 lung
K-562 leukemia = test system: K-562 leukemia
EKVX NSCLC = test system: EKVX NSCLC
SF-268 CNS = test system: SF-268 CNS
SK-MEL-2 melanoma = test system: SK-MEL-2 melanoma
LXFL 529 NSCLC = test system: LXFL 529 NSCLC
786-0 renal = test system: 786-0 renal
RXF 393 renal = test system: RXF 393 renal
SNB-78 CNS = test system: SNB-78 CNS
SK-MEL-28 melanoma = test system: SK-MEL-28 melanoma
M14 melanoma = test system: M14 melanoma
DMS 114 small cell lung = test system: DMS 114 small cell lung
SK-OV-3 ovarian = test system: SK-OV-3 ovarian
UO-31 renal = test system: UO-31 renal
SF-539 CNS = test system: SF-539 CNS
DLD-1 colon = test system: DLD-1 colon
ACHN renal = test system: ACHN renal
M19-MEL melanoma = test system: M19-MEL melanoma
SNB-19 CNS = test system: SNB-19 CNS
HCT-15 colon = test system: HCT-15 colon
KM20L2 colon = test system: KM20L2 colon
HT29 colon = test system: HT29 colon
HOP-62 NSCLC = test system: HOP-62 NSCLC
CAKI-1 renal = test system: CAKI-1 renal
HL-60(TB) leukemia = test system: HL-60(TB) leukemia
A498 renal = test system: A498 renal
SW-620 colon = test system: SW-620 colon
HCT-116 colon = test system: HCT-116 colon
COLO 205 colon = test system: COLO 205 colon
KM12 colon = test system: KM12 colon
OVCAR-3 ovarian = test system: OVCAR-3 ovarian
UACC-257 melanoma = test system: UACC-257 melanoma
NCI-H460 lung = test system: NCI-H460 lung
NCI-H522 lung = test system: NCI-H522 lung
UACC-62 melanoma = test system: UACC-62 melanoma
LOX IMVI melanoma = test system: LOX IMVI melanoma
HOP-92 NSCLC = test system: HOP-92 NSCLC

COC(=O)C(Cc1nc2ccc(Cl)cc2[nH]c1=O)/C(=N/O)C(=O)Nc1cccc(Cl)c1C (stereo not given)
TGI (RPMI-8226 leukemia): > 100 µM | TGI (TK-10 renal): > 100 µM | TGI (SN12C renal): > 100 µM | TGI (OVCAR-5 ovarian): > 100 µM | TGI (SK-MEL-5 melanoma): > 100 µM | TGI (MALME-3M melanoma): > 100 µM | TGI (OVCAR-8 ovarian): > 100 µM | TGI (SF-295 CNS): > 100 µM | TGI (OVCAR-4 ovarian): > 100 µM | TGI (HCC-2998 colon): > 100 µM | TGI (XF 498 CNS): > 100 µM | TGI (NCI-H226 lung): > 100 µM | TGI (SNB-75 CNS): > 100 µM | TGI (CCRF-CEM leukemia): > 100 µM | TGI (U251 CNS): > 100 µM | TGI (IGROV1 ovarian): > 100 µM | TGI (MOLT-4 leukemia): > 100 µM | TGI (DMS 273 small cell lung): > 100 µM | TGI (SR leukemia): > 100 µM | TGI (HOP-18 NSCLC): > 100 µM | TGI (A549 NSCLC): > 100 µM | TGI (NCI-H23 lung): > 100 µM | TGI (K-562 leukemia): > 100 µM | TGI (EKVX NSCLC): > 100 µM | TGI (SF-268 CNS): > 100 µM | TGI (SK-MEL-2 melanoma): > 100 µM | TGI (LXFL 529 NSCLC): > 100 µM | TGI (786-0 renal): > 100 µM | TGI (RXF 393 renal): > 100 µM | TGI (SNB-78 CNS): > 100 µM | TGI (SK-MEL-28 melanoma): > 100 µM | TGI (M14 melanoma): > 100 µM | TGI (DMS 114 small cell lung): > 100 µM | TGI (SK-OV-3 ovarian): > 100 µM | TGI (UO-31 renal): > 100 µM | TGI (SF-539 CNS): > 100 µM | TGI (DLD-1 colon): > 100 µM | TGI (ACHN renal): > 100 µM | TGI (M19-MEL melanoma): > 100 µM | TGI (SNB-19 CNS): > 100 µM | TGI (HCT-15 colon): > 100 µM | TGI (KM20L2 colon): > 100 µM | TGI (HT29 colon): > 100 µM | TGI (HOP-62 NSCLC): > 100 µM | TGI (CAKI-1 renal): > 100 µM | TGI (HL-60(TB) leukemia): > 100 µM | TGI (A498 renal): > 100 µM | TGI (SW-620 colon): > 100 µM | TGI (HCT-116 colon): > 100 µM | TGI (COLO 205 colon): > 100 µM | TGI (KM12 colon): > 100 µM | TGI (OVCAR-3 ovarian): > 100 µM | TGI (UACC-257 melanoma): > 100 µM | TGI (NCI-H460 lung): > 100 µM | TGI (NCI-H522 lung): > 100 µM | TGI (UACC-62 melanoma): > 100 µM | TGI (LOX IMVI melanoma): > 100 µM

CCOC(=O)NC(=O)c1cn(-c2ccc(CCOC(=O)NCCCCCCNC(=O)OCCc3ccc(-n4c(=O)[nH]cc(C(=O)NC(=O)OCC)c4=O)cc3)cc2)c(=O)[nH]c1=O
TGI (RPMI-8226 leukemia): > 100 µM | TGI (TK-10 renal): 97.5 µM | TGI (SN12C renal): > 100 µM | TGI (OVCAR-5 ovarian): > 100 µM | TGI (HOP-92 NSCLC): > 100 µM | TGI (SK-MEL-5 melanoma): > 100 µM | TGI (MALME-3M melanoma): > 91.9 µM | TGI (OVCAR-8 ovarian): > 100 µM | TGI (SF-295 CNS): > 82.4 µM | TGI (OVCAR-4 ovarian): > 100 µM | TGI (HCC-2998 colon): > 100 µM | TGI (XF 498 CNS): > 48.9 µM | TGI (SNB-75 CNS): 67.3 µM | TGI (CCRF-CEM leukemia): > 100 µM | TGI (U251 CNS): > 74.9 µM | TGI (IGROV1 ovarian): > 100 µM | TGI (MOLT-4 leukemia): > 100 µM | TGI (DMS 273 small cell lung): > 100 µM | TGI (SR leukemia): > 100 µM | TGI (HOP-18 NSCLC): > 100 µM | TGI (A549 NSCLC): > 100 µM | TGI (NCI-H23 lung): > 100 µM | TGI (K-562 leukemia): > 100 µM | TGI (EKVX NSCLC): > 100 µM | TGI (SF-268 CNS): > 84.8 µM | TGI (SK-MEL-2 melanoma): > 100 µM | TGI (LXFL 529 NSCLC): 69.7 µM | TGI (786-0 renal): > 100 µM | TGI (RXF 393 renal): > 100 µM | TGI (SNB-78 CNS): 98.8 µM | TGI (SK-MEL-28 melanoma): > 100 µM | TGI (M14 melanoma): > 100 µM | TGI (DMS 114 small cell lung): > 100 µM | TGI (SK-OV-3 ovarian): > 89.8 µM | TGI (UO-31 renal): > 93.9 µM | TGI (SF-539 CNS): 54.5 µM | TGI (DLD-1 colon): > 100 µM | TGI (ACHN renal): > 92.7 µM | TGI (M19-MEL melanoma): > 94.8 µM | TGI (SNB-19 CNS): 51.4 µM | TGI (HCT-15 colon): > 100 µM | TGI (KM20L2 colon): > 100 µM | TGI (HT29 colon): > 100 µM | TGI (HOP-62 NSCLC): 72 µM | TGI (CAKI-1 renal): > 100 µM | TGI (HL-60(TB) leukemia): > 100 µM | TGI (A498 renal): > 100 µM | TGI (SW-620 colon): > 100 µM | TGI (HCT-116 colon): > 100 µM | TGI (COLO 205 colon): > 100 µM | TGI (KM12 colon): > 100 µM | TGI (OVCAR-3 ovarian): > 100 µM | TGI (UACC-257 melanoma): > 100 µM | TGI (NCI-H460 lung): > 76.8 µM | TGI (NCI-H522 lung): 68.6 µM | TGI (UACC-62 melanoma): 60.6 µM | TGI (LOX IMVI melanoma): > 100 µM

CC(C)(Oc1ccc(C(=O)c2ccc(Cl)cc2)cc1Cl)C(=O)Nc1c(Cl)cccc1Cl
TGI (RPMI-8226 leukemia): > 100 µM | TGI (TK-10 renal): > 100 µM | TGI (OVCAR-5 ovarian): > 100 µM | TGI (HOP-92 NSCLC): > 100 µM | TGI (SK-MEL-5 melanoma): > 100 µM | TGI (MALME-3M melanoma): > 100 µM | TGI (OVCAR-8 ovarian): > 100 µM | TGI (SF-295 CNS): > 100 µM | TGI (XF 498 CNS): > 100 µM | TGI (CCRF-CEM leukemia): > 100 µM | TGI (U251 CNS): > 100 µM | TGI (IGROV1 ovarian): > 100 µM | TGI (MOLT-4 leukemia): > 100 µM | TGI (DMS 273 small cell lung): > 100 µM | TGI (SR leukemia): > 100 µM | TGI (HOP-18 NSCLC): > 100 µM | TGI (A549 NSCLC): > 100 µM | TGI (NCI-H23 lung): > 100 µM | TGI (K-562 leukemia): > 100 µM | TGI (EKVX NSCLC): > 100 µM | TGI (SF-268 CNS): > 100 µM | TGI (SK-MEL-2 melanoma): > 100 µM | TGI (LXFL 529 NSCLC): > 100 µM | TGI (786-0 renal): > 100 µM | TGI (RXF 393 renal): > 100 µM | TGI (SNB-78 CNS): > 100 µM | TGI (SK-MEL-28 melanoma): > 100 µM | TGI (M14 melanoma): > 100 µM | TGI (DMS 114 small cell lung): > 100 µM | TGI (SK-OV-3 ovarian): > 100 µM | TGI (UO-31 renal): > 100 µM | TGI (SF-539 CNS): > 100 µM | TGI (DLD-1 colon): > 100 µM | TGI (M19-MEL melanoma): > 100 µM | TGI (SNB-19 CNS): > 100 µM | TGI (HCT-15 colon): > 100 µM | TGI (KM20L2 colon): > 100 µM | TGI (HT29 colon): > 100 µM | TGI (HOP-62 NSCLC): > 100 µM | TGI (CAKI-1 renal): > 100 µM | TGI (HL-60(TB) leukemia): > 100 µM | TGI (A498 renal): > 100 µM | TGI (SW-620 colon): > 100 µM | TGI (HCT-116 colon): > 100 µM | TGI (KM12 colon): > 100 µM | TGI (OVCAR-3 ovarian): > 100 µM | TGI (UACC-257 melanoma): > 100 µM | TGI (NCI-H460 lung): > 100 µM | TGI (NCI-H522 lung): > 100 µM | TGI (UACC-62 melanoma): > 100 µM | TGI (LOX IMVI melanoma): > 100 µM
